This note sets out measurements from patent publication US20110152092A1, “Herbicidal compositions comprising flufenacet” (Bayer CropScience AG, priority 2009, published 2011).

Molecules are shown by their SMILES.

For data set [1], the system named is HORVS. The data set can be described thus: Greenhouse trial, PO application, selective post-emergence action on crop (test method 4). The settings on record: g of AS/ha: (A) 120, (B) 1200, (C) 120, mixture 120 + 1200 + 120. The format is in vivo, Hordeum vulgare, summer barley. The protocol: (§1) In the standard design of the test, seeds of various broad-leaved weed and weed grass biotypes (origins) were sown in a 8-13 cm diameter pot filled with natural soil of a standard field soil (loamy silt; non-sterile) and covered with a covering soil layer of about 1 cm. The pots were then cultivated in a greenhouse (12-16 h of light, temperature day 20-22° C., night 15-18° C.) until the time of application. The pots were treated on a laboratory track sprayer with spray liquors comprising the compositions according to the invention, mixtures of the prior art or components used individually. Application of the active compounds or active compound combinations formulated as WG, WP, EC or otherwise was carried out at the appropriate growth stages of the plants. The application rate for the spray application was 100-600 l of water/ha. After the treatment, the plants were returned to the greenhouses.
(§2) About 3 weeks after the application, the soil action or/and foliar action was assessed visually according to a scale of 0-100% in comparison to an untreated comparative group: 0%=no noticeable effect compared to the untreated comparative group; 100%=full effect compared to the untreated comparative group. […]

Data set [2] has as its system HORVS. The data set can be described thus: Greenhouse trial, PE application, selective pre-emergence action on crop (test method 3). The settings on record: g of AS/ha: (A) 90, (B) 1200, (C) 90, mixture 90 + 1200. The class given is in vivo, Hordeum vulgare, summer barley. The protocol: as §1, §2
The test system of a further data set is AVEFA. Briefly: Greenhouse trial, pre-sowing application 7 days prior to sowing (test method 5). The class given is in vivo, Avena fatua. The settings on record: g of AS/ha: (A) 90, (B) 1200, (C) 90, mixture 90 + 1200. The protocol:
as §1, §2

The subject of data set [3] is HORVS. The description is as above. The format is in vivo, Hordeum vulgare, summer barley. The settings on record: g of AS/ha: (A) 90, (B) 1200, (C) 90, mixture 90 + 1200. The protocol: as §1, §2
The test system of the next data set is TRZAS. The data set can be described thus: Greenhouse trial, PE application with different irrigation variations (test method 6). The format is in vivo, Triticum aestivum, summer wheat. The settings on record: g of AS/ha: (A) 120, (B) 1200, (C) 90, mixture 120 + 1200 + 90. The protocol:
as §1
(§3) About 3 weeks after the application, the soil action or/and foliar action was assessed visually according to a scale of 0-100% in comparison to an untreated comparative group: 0%=no noticeable effect compared to the untreated comparative group; 100%=full effect compared to the untreated comparative group.
(§4) (notes: the term “seeds” also includes vegetative propagation forms such as, for example, rhizome pieces; abbreviations used: h light=hours of illumination, g of AS/ha=gram of active substance per hectare, l/ha=liter per hectare, S=sensitive, R=resistant) • 1. Pre-emergence action against weeds: seeds of various broad-leaved weed and weed grass biotypes (origins) were sown in a 8-13 cm diameter pot filled with natural soil of a standard field soil (loamy silt; non-sterile) and covered with a covering soil layer of about 1 cm. The pots were then cultivated in a greenhouse (12-16 h of light, temperature day 20-22° C., night 15-18° C.) until the time of application. The pots were treated at the BBCH stage 00-10 of the seeds/plants on a laboratory track sprayer with spray liquors comprising the compositions according to the invention, mixtures or components used individually, as WG, WP, EC or other formulations. The application rate for the spray application was 100-600 l of water/ha. After the treatment, the plants were returned to the greenhouses and, when required, treated with fertilizer and watered. • 2. Post-emergence action against weeds: seeds of various broad-leaved weed and weed grass biotypes (origins) were sown in a 8-13 cm diameter pot filled with natural soil of a standard field soil (loamy silt; non-sterile) and covered with a covering soil layer of about 1 cm. The pots were then cultivated in a greenhouse (12-16 h of light, temperature day 20-22° C., night 15-18° C.) until the time of application. […]

Another data set has as its system STEME. The data set can be described thus: Greenhouse trial, activity with different soil types. The class given is in vivo, Stellaria media. The settings on record: g of AS/ha: (A) 120, (B) 1200, (C) 90, mixture 120 + 1200 + 90; for Difference of the soil types, STEME: IU/EC73 soil versus IU soil. The protocol:
as §1, §3
(§5) (notes: the term “seeds” also includes vegetative propagation forms such as, for example, rhizome pieces; abbreviations used: h light=hours of illumination, g of AS/ha=gram of active substance per hectare, l/ha=liter per hectare, S=sensitive, R=resistant) • 1. Pre-emergence action against weeds: seeds of various broad-leaved weed and weed grass biotypes (origins) were sown in a 8-13 cm diameter pot filled with natural soil of a standard field soil (loamy silt; non-sterile) and covered with a covering soil layer of about 1 cm. The pots were then cultivated in a greenhouse (12-16 h of light, temperature day 20-22° C., night 15-18° C.) until the time of application. The pots were treated at the BBCH stage 00-10 of the seeds/plants on a laboratory track sprayer with spray liquors comprising the compositions according to the invention, mixtures or components used individually, as WG, WP, EC or other formulations. The application rate for the spray application was 100-600 l of water/ha. After the treatment, the plants were returned to the greenhouses and, when required, treated with fertilizer and watered. • 2. Post-emergence action against weeds: seeds of various broad-leaved weed and weed grass biotypes (origins) were sown in a 8-13 cm diameter pot filled with natural soil of a standard field soil (loamy silt; non-sterile) and covered with a covering soil layer of about 1 cm. The pots were then cultivated in a greenhouse (12-16 h of light, temperature day 20-22° C., night 15-18° C.) until the time of application. The pots were treated at various BBCH stages between 11-25 of the seeds/plants, i.e. generally between two to three weeks after the start of the cultivation, on a laboratory track sprayer with spray liquors comprising the compositions according to the invention, mixtures or components used individually, as WG, WP, EC or other formulations. The application rate for the spray application was 100-600 l of water/ha. After the treatment, the plants were returned to the greenhouses and, when required, treated with fertilizer and watered. • 3. Selective pre-emergence action: seeds of various crop species (origins) were sown in a 8-13 cm diameter pot filled with natural soil of a standard field soil (loamy silt; non-sterile) and covered with a covering soil layer of about 1 cm. The pots were then cultivated in a greenhouse (12-16 h of light, temperature day 20-22° C., night 15-18° C.) until the time of application. The pots were treated at the BBCH stage 00-10 of the seeds/plants on a laboratory track sprayer with spray liquors comprising the compositions according to the invention, mixtures or components used individually, as WG, WP, EC or other formulations. The application rate for the spray application was 100-600 l of water/ha. […]

The test system of data set [4] is HORVS. Described as above. The format is in vivo, Hordeum vulgare, summer barley. Particulars: g of AS/ha: (A) 120, (B) 1200, (C) 90, mixture 120 + 1200 + 90. The protocol:
as §1, §3
(§6) (notes: the term “seeds” also includes vegetative propagation forms such as, for example, rhizome pieces; abbreviations used: h light=hours of illumination, g of AS/ha=gram of active substance per hectare, l/ha=liter per hectare, S=sensitive, R=resistant) • 1. Pre-emergence action against weeds: seeds of various broad-leaved weed and weed grass biotypes (origins) were sown in a 8-13 cm diameter pot filled with natural soil of a standard field soil (loamy silt; non-sterile) and covered with a covering soil layer of about 1 cm. The pots were then cultivated in a greenhouse (12-16 h of light, temperature day 20-22° C., night 15-18° C.) until the time of application. The pots were treated at the BBCH stage 00-10 of the seeds/plants on a laboratory track sprayer with spray liquors comprising the compositions according to the invention, mixtures or components used individually, as WG, WP, EC or other formulations. The application rate for the spray application was 100-600 l of water/ha. After the treatment, the plants were returned to the greenhouses and, when required, treated with fertilizer and watered. • 2. Post-emergence action against weeds: seeds of various broad-leaved weed and weed grass biotypes (origins) were sown in a 8-13 cm diameter pot filled with natural soil of a standard field soil (loamy silt; non-sterile) and covered with a covering soil layer of about 1 cm. The pots were then cultivated in a greenhouse (12-16 h of light, temperature day 20-22° C., night 15-18° C.) until the time of application. The pots were treated at various BBCH stages between 11-25 of the seeds/plants, i.e. generally between two to three weeks after the start of the cultivation, on a laboratory track sprayer with spray liquors comprising the compositions according to the invention, mixtures or components used individually, as WG, WP, EC or other formulations. The application rate for the spray application was 100-600 l of water/ha. After the treatment, the plants were returned to the greenhouses and, when required, treated with fertilizer and watered. • 3. […]

The next data set relates to ALOMY. Briefly: Greenhouse trial, PE application on sensitive and resistant biotypes (test method 8). Particulars: g of AS/ha: (A) 90, (B) 1200, (C) 90, mixture 90 + 1200 + 90, iodosulfuron 10; for activity ALOMY resistant (visual, scale 0-100%): resistant biotype; for activity ALOMY sensitive (visual, scale 0-100%): sensitive biotype. The class given is in vivo, Alopecurus myosuroides. The protocol: as §1, §3, §5

For the next data set, the system named is TRZAW. The data set can be described thus: Greenhouse trial, PE application at different sowing depths (test method 9). The settings on record: g of AS/ha: (A) 120, (B) 1200, (C) 90, mixture 90 + 1200 + 90. The class given is in vivo, Triticum aestivum, winter wheat. The protocol: as §1, §3, §4
The test system of the next data set is LOLPE. The data set can be described thus: Greenhouse trial, PO application, post-emergence action against weeds (test method 2). The class given is in vivo, Lolium perenne. The settings on record: g of AS/ha: (A) 120, (B) 1200, (C) 120, mixture 120 + 1200 + 120. The protocol:
as §1, §2

Data set [5] relates to MATCH. Briefly: Greenhouse trial, PE application with different irrigation variations (test method 6). The format is in vivo, Matricaria chamomilla. Particulars: irrigation from above, g of AS/ha: (A) 120, (B) 1200, (C) 90, mixture 120 + 1200 + 90. The protocol: as §1, §3
(§7) (notes: the term “seeds” also includes vegetative propagation forms such as, for example, rhizome pieces; abbreviations used: h light=hours of illumination, g of AS/ha=gram of active substance per hectare, l/ha=liter per hectare, S=sensitive, R=resistant) • 1. Pre-emergence action against weeds: seeds of various broad-leaved weed and weed grass biotypes (origins) were sown in a 8-13 cm diameter pot filled with natural soil of a standard field soil (loamy silt; non-sterile) and covered with a covering soil layer of about 1 cm. The pots were then cultivated in a greenhouse (12-16 h of light, temperature day 20-22° C., night 15-18° C.) until the time of application. […]

In data set [6] the test system is MATCH. Briefly: Greenhouse trial, activity with different soil types. Particulars: g of AS/ha: (A) 120, (B) 1200, (C) 90, mixture 120 + 1200 + 90. The format is in vivo, Matricaria chamomilla. The protocol:
as §1, §3, §6

A further data set deals with APESV. The data set can be described thus: Greenhouse trial, PE application at different sowing depths (test method 9). The class given is in vivo, Apera Spica-venti. The settings on record: sowing depth 5 mm, g of AS/ha: (A) 120, (B) 1200, (C) 90, mixture 90 + 1200 + 90. The protocol: as §1, §3, §7

Take `O=C(Nc1ccc(F)cc1F)c1cccnc1Oc1cccc(C(F)(F)F)c1` [(C) diflufenican, N-(2,4-difluorophenyl)-2-[3-(trifluoromethyl)phenoxy]-3-pyridinecarboxamide]: the “activity on crop plant HORVS (visual, scale 0-100%)” value with HORVS [1] is on record as 5%; in the data set on HORVS [2], 5%; in the data set with HORVS [3] it was 30%. In the data set on AVEFA, the “activity AVEFA (visual, scale 0-100%)” value was 0%. In addition, the “activity on crop plant TRZAS (visual, scale 0-100%)” value is given as 10% with TRZAS (irrigation from above) and 0% in the data set on TRZAS (irrigation from below). Also, the “Difference of the soil types, STEME” value in the data set on STEME was −57%. Further, the “activity on crop plant HORVS IU soil (visual, scale 0-100%)” value in the data set on HORVS [4] (IU soil) is on record as 0%. Moreover, the “activity on crop plant HORVS IU/EC73 soil (visual, scale 0-100%)” value in the data set on HORVS [4] (IU/EC73 soil) came to 0%. For the same compound, the “activity ALOMY resistant (visual, scale 0-100%)” value in the data set on ALOMY was found to be 30%. Further, the “activity ALOMY sensitive (visual, scale 0-100%)” value in the data set with ALOMY is 30%. For the same compound, in the data set on TRZAW (sowing depth 5 mm), the “activity on crop plant TRZAW 5 mm (visual, scale 0-100%)” value was determined as 20%. Besides, in the data set on TRZAW (sowing depth 20 mm), the “activity on crop plant TRZAW 20 mm (visual, scale 0-100%)” value worked out at 20%.
Regarding `CC(C)N(C(=O)COc1nnc(C(F)(F)F)s1)c1ccc(F)cc1` [(A) flufenacet, N-(4-fluorophenyl)-N-(1-methylethyl)-2-[[5-(trifluoromethyl)-1,3,4-thiadiazol-2-yl]oxy]acetamide], in the data set on LOLPE, the “activity LOLPE (visual, scale 0-100%)” value was 65%. Further, the “activity MATCH (visual, scale 0-100%)” value with MATCH [5] is reported as 97%. Also, the “activity STEME IU soil (visual, scale 0-100%)” value with STEME (IU soil) is given as 89%. In addition, the “Difference of the soil types, STEME” value in the data set on STEME is −89%. The “Difference of the soil types, MATCH” value in the data set on MATCH [6] (IU/EC73 soil versus IU soil) is on record as −28%. Further, the “activity MATCH IU/EC73 soil (visual, scale 0-100%)” value in the data set on MATCH [6] (IU/EC73 soil) came to 0%. Besides, in the data set with ALOMY, the “activity ALOMY resistant (visual, scale 0-100%)” value is recorded as 68% and the “activity ALOMY sensitive (visual, scale 0-100%)” value is recorded as 80%. For the same compound, in the data set on APESV, the “activity APESV 5 mm (visual, scale 0-100%)” value came to 67%.
